Test [1] deals with T1, Peroxisome proliferator-activated receptor delta (Homo sapiens, UniProt Q03181).
T1 sequence (Q03181 whole entry): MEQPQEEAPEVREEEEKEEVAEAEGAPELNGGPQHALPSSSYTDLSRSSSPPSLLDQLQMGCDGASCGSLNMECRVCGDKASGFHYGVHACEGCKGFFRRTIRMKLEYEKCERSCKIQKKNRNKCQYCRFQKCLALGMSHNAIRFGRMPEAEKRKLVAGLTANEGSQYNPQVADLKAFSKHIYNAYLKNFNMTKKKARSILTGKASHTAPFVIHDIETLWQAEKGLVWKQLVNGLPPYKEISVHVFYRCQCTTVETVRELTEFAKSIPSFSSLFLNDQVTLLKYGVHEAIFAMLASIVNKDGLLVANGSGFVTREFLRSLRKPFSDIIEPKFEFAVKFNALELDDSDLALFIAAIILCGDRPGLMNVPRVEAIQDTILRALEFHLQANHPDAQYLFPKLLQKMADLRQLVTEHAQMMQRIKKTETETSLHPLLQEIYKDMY
Description: (§1) Agonist activity at PPARdelta by transactivation assay

Test [2] addresses T2, Peroxisome proliferator-activated receptor gamma (Homo sapiens, UniProt P37231).
T2 sequence (P37231 whole entry): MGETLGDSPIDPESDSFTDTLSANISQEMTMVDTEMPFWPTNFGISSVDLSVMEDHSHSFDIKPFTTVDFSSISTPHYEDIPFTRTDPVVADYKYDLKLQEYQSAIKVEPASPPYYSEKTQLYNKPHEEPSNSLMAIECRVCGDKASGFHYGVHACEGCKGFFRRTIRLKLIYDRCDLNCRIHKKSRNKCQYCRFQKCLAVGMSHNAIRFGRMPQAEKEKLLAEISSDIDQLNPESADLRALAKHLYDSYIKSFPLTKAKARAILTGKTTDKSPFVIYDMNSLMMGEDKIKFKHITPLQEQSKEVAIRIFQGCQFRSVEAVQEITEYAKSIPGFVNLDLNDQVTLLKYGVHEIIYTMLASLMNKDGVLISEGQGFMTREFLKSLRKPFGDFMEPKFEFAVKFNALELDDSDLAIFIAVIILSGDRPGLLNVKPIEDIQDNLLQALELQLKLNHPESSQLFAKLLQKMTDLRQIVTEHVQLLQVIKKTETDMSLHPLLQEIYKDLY
The test is described as follows: Agonist activity at PPARgamma by transactivation assay. It counts as functional.

Test [3] addresses T3, Peroxisome proliferator-activated receptor alpha (Homo sapiens, UniProt Q07869).
T3 sequence (Q07869 whole entry): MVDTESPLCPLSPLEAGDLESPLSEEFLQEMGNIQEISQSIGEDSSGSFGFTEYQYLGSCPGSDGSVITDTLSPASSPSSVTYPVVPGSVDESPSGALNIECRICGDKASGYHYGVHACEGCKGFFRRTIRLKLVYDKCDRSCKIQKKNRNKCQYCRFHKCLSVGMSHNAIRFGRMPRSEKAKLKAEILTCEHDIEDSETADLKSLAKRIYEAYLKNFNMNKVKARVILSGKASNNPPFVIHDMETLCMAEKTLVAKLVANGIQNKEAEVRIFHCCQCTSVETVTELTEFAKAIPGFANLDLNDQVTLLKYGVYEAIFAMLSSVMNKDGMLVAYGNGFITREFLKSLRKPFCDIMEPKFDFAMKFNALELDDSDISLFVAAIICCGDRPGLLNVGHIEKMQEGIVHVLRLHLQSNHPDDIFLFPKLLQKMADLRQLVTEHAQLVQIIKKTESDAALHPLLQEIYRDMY
As to the kind of experiment: Agonist activity at PPARalpha by transactivation assay. It counts as functional.

For test [4], the target named is T1, Peroxisome proliferator-activated receptor delta. The source holds these as a separate data set.
Description: as §1

`O=C(O)Cc1ccc(-c2noc(C3CC3)c2C(=O)NCCOc2ccc(Cl)cc2Cl)c(Cl)c1`: the figures for the EC50 in test [1], in test [2] (read-out: EC50) and in test [3] (read-out: EC50) were 0.03 µM, 3.23 µM and 1.67 µM, respectively.

Turning to `O=C(O)Cc1ccc(-c2noc(C(=O)CCCOc3ccc(Cl)cc3Cl)c2-c2ccccc2)c(Cl)c1`, the EC50 result in test [2], in test [3] and in test [4] was “Not Active” each time.

`CC(C)(C)c1onc(-c2ccc(CC(=O)O)cc2Cl)c1C(=O)NCCOc1ccc(Cl)cc1Cl`: the EC50 in test [1] is 2.59 µM; in test [2] (read-out: EC50), more than 10 µM; in test [3] (read-out: EC50), more than 10 µM.

Consider `Cc1onc(-c2ccc(CC(=O)O)cc2Cl)c1C(=O)NCCOc1ccc(Cl)cc1Cl`, for which the EC50 was 0.31 µM in test [1], more than 10 µM in test [2] (read-out: EC50) and more than 10 µM in test [3] (read-out: EC50).

As to `O=C(O)Cc1ccc(-c2noc(-c3ccccc3)c2COCCOc2ccc(Cl)cc2Cl)c(Cl)c1`, the values for the EC50 in test [1], in test [2] (read-out: EC50) and in test [3] (read-out: EC50) were 0.19 µM, more than 10 µM and more than 10 µM, respectively.

Turning to `Cc1onc(-c2ccc(CC(=O)O)cc2Cl)c1C(=O)NCCOc1ccc(C(F)(F)F)cc1`, the EC50 in test [1], in test [2] (read-out: EC50) and in test [3] (read-out: EC50) was more than 10 µM throughout.

For `O=C(O)Cc1ccc(-c2noc(-c3ccccc3)c2C(=O)NCCOc2ccc(Cl)cc2Cl)c(Cl)c1`, the values for the EC50 in test [1], in test [2] (read-out: EC50) and in test [3] (read-out: EC50) were 0.08 µM, more than 10 µM and more than 10 µM, respectively.

With `CCc1onc(-c2ccc(CC(=O)O)cc2Cl)c1C(=O)NCCOc1ccc(Cl)cc1Cl`, the EC50 in test [1] was 0.11 µM; in test [2] (read-out: EC50), more than 10 µM; in test [3] (read-out: EC50) it was more than 10 µM.

Turning to `Cc1onc(-c2ccc(CC(=O)O)cc2Cl)c1C(=O)NCCOc1ccccc1[N+](=O)[O-]`, the EC50 in test [1], in test [2] (read-out: EC50) and in test [3] (read-out: EC50) was more than 10 µM in each case.

Turning to `CN(CCOc1ccc(Cl)cc1Cl)C(=O)c1c(-c2ccc(CC(=O)O)cc2Cl)noc1-c1ccccc1`, the EC50 is 3.67 µM in test [1], more than 10 µM in test [2] (read-out: EC50) and more than 10 µM in test [3] (read-out: EC50).

As to `O=C(O)Cc1ccc(-c2noc(-c3ccco3)c2C(=O)NCCOc2ccc(Cl)cc2Cl)c(Cl)c1`, the EC50 is 0.01 µM in test [1], more than 10 µM in test [2] (read-out: EC50) and more than 10 µM in test [3] (read-out: EC50).

With `Cc1onc(-c2ccc(CC(=O)O)cc2Cl)c1C(=O)NCCOc1ccc(C(F)(F)F)cc1[N+](=O)[O-]`, the EC50 in test [1] was determined as 0.004 µM; in test [2] (read-out: EC50), 1.25 µM; in test [3] (read-out: EC50) it was 0.34 µM.

On to `Cc1cc(SCc2cc(-c3c(Cl)cccc3Cl)no2)ccc1OCC(=O)O`, for which the EC50 entry in test [2], in test [3] and in test [4] was “Not Active” throughout.

In the case of `Cc1onc(-c2ccc(CC(=O)O)cc2Cl)c1COCCOc1ccc(C(F)(F)F)cc1[N+](=O)[O-]`, the values for the concentration for a half-maximal effect (EC50) in test [1], in test [2] (read-out: EC50) and in test [3] (read-out: EC50) were 0.13 µM, more than 10 µM and 0.22 µM, respectively.

For `Cc1onc(-c2ccc(CC(=O)O)cc2Cl)c1C(=O)NCCOc1ccc(C(F)(F)F)cc1C(F)(F)F`, the EC50 is 0.26 µM in test [1], more than 10 µM in test [2] (read-out: EC50) and more than 10 µM in test [3] (read-out: EC50).

In the case of `Cc1onc(-c2c(Cl)cccc2Cl)c1C(=O)OCCOc1ccc(C(F)(F)F)cc1[N+](=O)[O-]`, the EC50 was 0.23 µM in test [1], more than 10 µM in test [2] (read-out: EC50) and more than 10 µM in test [3] (read-out: EC50).

Turning to `CC(C)c1onc(-c2ccc(CC(=O)O)cc2Cl)c1C(=O)NCCOc1ccc(Cl)cc1Cl`, the EC50 is 0.09 µM in test [1], more than 10 µM in test [2] (read-out: EC50) and 7.11 µM in test [3] (read-out: EC50).

On to `O=C(O)Cc1ccc(-c2noc(-c3ccccc3)c2C(=O)CCCOc2ccc(Cl)cc2Cl)c(Cl)c1`, for which the EC50 is 0.03 µM in test [1], more than 10 µM in test [2] (read-out: EC50) and more than 10 µM in test [3] (read-out: EC50).

As usually defined, the EC50 is the concentration that produces a half-maximal response.

These data come from ChEMBL document CHEMBL1145320, “3,4,5-Trisubstituted isoxazoles as novel PPARdelta agonists: Part 1” (Bioorg Med Chem Lett, 2006).
